What was measured:
isolated rat adipocytes = assay: Glucose transport (2-deoxyglucose uptake) in isolated rat adipocytes; type: cell-based; settings: isolated rat adipocytes; for stimulation of glucose transport in the presence of semicarbazide: 1 mM semicarbazide; for stimulation of glucose transport (2-DG uptake): 45 min incubation
Protocol: In order to determine whether salts formed by vanadate and benzylamine could produce an insulin mimetic effect, the effect of increasing concentrations of hexaquis(benzylammonium) decavanadate on glucose transport activity in isolated rat adipocytes was tested. […] In similar assays, the activity of hexaquis(benzylammonium) decavanadate, pentaquis(benzylammonium) decavanadate and tetraquis(benzylammonium) decavanadate on glucose transport activity in isolated rat adipocytes were analyzed.
To determine the possible insulin mimetic effect of certain vanadium arylalkylamines, the capacity of these compounds to enhance glucose transport in isolated rat adipocytes was tested. Adipose cells from Wistar rats were incubated for 45 minutes in basal conditions (Basal) or in the presence of 100 nM insulin (Ins), and different concentrations of. hexaquis(benzylammonium) decavanadate (B6V10) in the absence or in the presence of 1 mM semicarbazide (SCZ). Subsequently, 2-DG transport was measured over a 5 min. interval.
The effects of the three tested compounds (B6V10, B5V10 and B4V10) were compared. Adipose cells from Wistar rats were incubated for 45 minutes in basal conditions (Basal) or in the presence of 100 nM insulin (Ins), and different concentrations of. decavanadate (V10), hexaquis(benzylammonium) decavanadate (B6V10), pentaquis(benzylammonium) decavanadate (B5V10) or tetraquis(benzylammonium) decavanadate (B4V10) in the absence or in the presence of 1 mM semicarbazide (SCZ). 2-DG transport was measured over 5 min. intervals. […]
(§1) The effects of incubation with semicarbazide or phosphatidylinositol 3-kinase inhibitors were also investigated. Adipose cells were incubated with B6V10 (25 μM, 45 min) in the absence or presence of wortmannin (2 μM, 45 min), LY294002 (10 μM, 45 min) or semicarbazide (1 mM, 45 min) and thereafter 2-deoxyglucose uptake was determined during 5 min.

[1] = system: streptozotocin-induced diabetic rats; assay: Chronic subcutaneous (osmotic minipump) treatment of streptozotocin (45 mg/kg) diabetic rats, glycemia; type: in vivo, rat; settings: 2.5 μmol/kg/day by osmotic minipumps, about two weeks, STZ 45 mg/kg rats
Protocol: (§2) Male Wistar rats weighting 180-220 g were purchased from Harlan (Interfauna Ibèrica S.A., Spain). Diabetes was induced by a single intraperitoneal injection of a freshly prepared solution of streptozotocin (in some studies the dose was 45 mg/kg body weight and in some others 100 mg/kg body weight dissolved in 50 mM citrate buffer, pH 4.5). Only diabetic animals with glycemia above 300 mg/dl were used. The animals were housed in animal quarters at 22° C., with a 12 h light/12 h dark cycle and were fed ad libitum. All procedures used were approved by the animal ethical committee of the University of Barcelona, Spain. Male mice C57 BL/Ks bearing the db/db mutation (Jackson Laboratories, Bar Harbor, Me.) were purchased from Harlan France (Gannat, France). C57BL/6J male mice were assigned for 16 weeks to very high-fat diet containing (in kcal): 72% from fat, 28% from proteins and <1% from carbohydrates (Burcelin et al., 2002, Am. J. Physiol. Endocrinol. Metab 282: E834-E842).
(§3) Osmotic minipumps delivering B6V10 (2.5 μmol/kg body wt/day) or decavanadate (2.5 μmol/kg body wt/day) were implanted subcutaneously in diabetic rats anaesthetised by ketamine hydrochloride (95 mg/kg) and xylasine (10 mg/kg). […] Glycemia was measured on arterio-venous blood collected from the tail vessels at 09:00 am for two weeks, before the administration of vanadate. Insulin concentrations were determined before and after treatment. In another set of experiments, B6V10 was orally administered at a single dose of 5 μmol/kg/day during the first week and 10 μmol/kg/day during 2 additional weeks by gastric gavage. A control group received the corresponding decavanadate salt in the absence of benzylamine. At the end of the treatment, animals were sacrificed and the liver, fat pad, heart and lung were kept at −80° C. and the plasma at −20° C. until their use for in vitro analysis.
(§4) In glucose tolerance tests and in chronic treatments, circulating glucose concentrations were determined by a rapid glucose analyser (Accutrend® Sensor Comfort, Roche, Basel. Switzerland). Plasma insulin (IRI) concentration was determined by ELISA method using a kit obtained from Crystal Chem Inc. (Downers Grove, Ill.). Plasma triglycerides (Biosystems, Barcelona, Spain) and NEFAS (Wako Chemicals, Neuss, Germany) were determined with standard […] methods.
The effect of chronic administration of hexaquis(benzylammonium) decavanadate on glycemia from diabetic rats was determined. Thus, diabetes was induced in rats by intravenous administration of streptozotocin, which destroys the β-pancreatic cells that produce insulin.
Chronic in vivo efficacy of B6V10 was evaluated in streptozotocin-induced diabetic rats and in db/db mice. Streptozotocin-induced (45 mg/kg) diabetic rats were subcutaneously treated with hexaquis(benzylammonium) decavanadate (2.5 μmol/kg) (B6V10, solid squares, FIG. 8A) or with decavanadate (2.5 μmol/kg) (V10, open circles, FIG. 8A) delivered subcutaneously by osmotic minipumps implanted in the dorsal region. Diabetic rats were also sham-operated (untreated, solid diamonds, FIG. 8A). […] These experiments were repeated using an oral administration protocol. Streptozotocin-induced (45 mg/kg) diabetic rats were orally treated with hexaquis(benzylammonium) decavanadate (5 μmol/kg from day 0 to day 7 and 10 μmol/kg/day from day 7 to day 17) (B6V10, solid squares, FIG. 8B) or received decavanadate (10 μmol/kg) (V10, open circles, FIG. 8B). […]

[2] = system: streptozotocin-induced diabetic rats; assay: Chronic oral treatment of streptozotocin (45 mg/kg) diabetic rats, glycemia; type: in vivo, rat; settings: for glycemia during chronic oral treatment: daily oral, 17 days (5 then 10 μmol/kg/day), STZ 45 mg/kg rats
Protocol: as §2, §3, §4
The effect of the oral administration of hexaquis(benzylammonium) decavanadate on glycemia from diabetic rats was also studied. Diabetes was induced in rats by intravenous administration of streptozotocin, and subsequently, a hexaquis(benzylammonium) decavanadate or sodium decavanadate unique dose was administered to the rats. […] After seven days of treatment, the dose was increased at 10 μmol/kg/day which was maintained for an additional ten days. […] Thus, glycemia in sodium decavanadate treated rats was approximately 450 mg/dl and glycemia of hexaquis(benzylammonium) decavanadate treated rats was approximately 250 mg/dl.
Chronic in vivo efficacy of B6V10 was evaluated in streptozotocin-induced diabetic rats and in db/db mice. Streptozotocin-induced (45 mg/kg) diabetic rats were subcutaneously treated with hexaquis(benzylammonium) decavanadate (2.5 μmol/kg) (B6V10, solid squares, FIG. 8A) or with decavanadate (2.5 μmol/kg) (V10, open circles, FIG. 8A) delivered subcutaneously by osmotic minipumps implanted in the dorsal region. Diabetic rats were also sham-operated (untreated, solid diamonds, FIG. 8A). […] These experiments were repeated using an oral administration protocol. Streptozotocin-induced (45 mg/kg) diabetic rats were orally treated with hexaquis(benzylammonium) decavanadate (5 μmol/kg from day 0 to day 7 and 10 μmol/kg/day from day 7 to day 17) (B6V10, solid squares, FIG. 8B) or received decavanadate (10 μmol/kg) (V10, open circles, FIG. 8B). Nondiabetic rats were also untreated (solid triangles, FIG. 8B).

[3] = system: streptozotocin-induced diabetic rat with undetectable circulating insulin; assay: Subcutaneous treatment of streptozotocin (100 mg/kg) diabetic rats with undetectable circulating insulin; type: in vivo; settings: 2.5 μmol/kg subcutaneous minipumps, STZ 100 mg/kg
Protocol: as §2, §4
To this end, rats were made diabetic by the injection of a large dose of streptozotocin (100 mg/kg) that eliminates β-pancreatic insulin content. […] These streptozotocin-induced diabetic rats were subcutaneously treated with B6V10 (2.5 μmol/kg) (solid squares, FIG. 9A) delivered by osmotic minipumps or left untreated (solid circles, FIG. 9A). Sham-operated nondiabetic rats were also untreated (solid triangles, FIG. 9A).
The concentration of circulating glucose under these conditions was also assayed. After 28 days of treating diabetic rats with hexaquis(benzylammonium) decavanadate (2.5 μmol/kg) (wide striped bars, FIG. 9B), or with decavanadate (close striped bars, FIG. 9B) delivered by osmotic minipumps, plasma insulin and glucose were measured. Untreated diabetic (solid bars, FIG. 9B) or nondiabetic rats (open bars, FIG. 9B) were similarly assayed as controls.

protein kinase B = assay: Protein kinase B phosphorylation in isolated rat adipocytes; type: cell-based; settings: 25 μM, rat adipocytes
Protocol: Isolated fat cells were disrupted for total membrane preparation by hypo-osmotic lysis in a 20 mM HES buffer and an antiprotease and antiphosphatase cocktail as reported by Abella et al. (2003, Diabetes 52: 1004-1013). Protein concentrations were determined by the Bradford method (Bradford, 1976, Anal. Biochem. 72: 248-254) with gamma-globulin as protein concentration standard. Immunoprecipitation and immunoblot assays were performed as previously described by Abella et al. (2004, Id.) with the use of a monoclonal antiphosphotyrosine antibody for the immunoprecipitation and an anti-insulin receptor antibody for immunoblotting, respectively. SDS-polyacrylamide gel electrophoresis was performed on membrane proteins following conventional procedures. Proteins were transferred to Immobilon and immunoblotting was performed as reported by Castello et al. (1994, J. Biol. Chem. 269: 5905-5912).
The mechanism of action of B6V10 was investigated in isolated rat adipocytes. Adipose cells from Wistar rats were incubated for different times in the presence of 25 μM hexaquis(benzylammonium) decavanadate (B6V10). Cells were also incubated in the presence of insulin (100 nM, 45 min), decavanadate (25 μM, 45 min) or semicarbazide (1 mM, 45 min). Subsequently, 2-deoxyglucose uptake (results shown in FIG. 7A), tyrosine phosphorylation of insulin receptor (FIG. 7B), phospho-Thr^308-protein kinase B (FIG. 7C) and phospho-Ser^473-protein kinase B (FIG. 7D) was measured. […] The phosphorylation of protein kinase B induced by B6V10 was parallel to activation of glucose transport (FIG. 7C and 7D).
as §1

Substance	stimulation of glucose transport in the presence of semicarbazide (isolated rat adipocytes; dihydrate)	stimulation of glucose transport in the presence of semicarbazide (isolated rat adipocytes; listed as tetraquis(benzylammonium) decavanadate, Dihydrate)	stimulation of glucose transport (2-DG uptake) (isolated rat adipocytes)	stimulation of glucose transport in the presence of semicarbazide (isolated rat adipocytes; listed as pentaquis(benzylammonium) decavanadate, dihydrate)	glycemia during chronic subcutaneous treatment [1]	glycemia during chronic subcutaneous treatment ([1]; listed as sodium decavanadate)	glycemia during chronic oral treatment [2]	glycemia during chronic oral treatment ([2]; listed as sodium decavanadate)	glycemia ([2]; oral treatment, after dose increase to 10 μmol/kg/day)	glycemia in diabetic rats with undetectable insulin [3]	protein kinase B phosphorylation (protein kinase B)
Tetraquis(Benzylammonium) Decavanadate (V) Dihydrate [Entry B4V10]	blocked in the presence of semicarbazide	this effect was inhibited	pronounced stimulation on glucose transport	–	–	–	–	–	–	–	–
pentaquis(benzylammonium) decavanadate (V) dihydrate [Entry B5V10]	blocked in the presence of semicarbazide	–	pronounced stimulation on glucose transport	this effect was inhibited	–	–	–	–	–	–	–
sodium decavanadate [Entry V10, reference compound]	–	–	did not stimulate glucose transport	–	did not alter glycemia	did not modify substantially its glycemia	did not alter glycemia	not affected substantially	approximately 450 mg/dl	did not show any change in circulating glucose	not observed

— US20070066682A1, “Arylalkylamine vanadium (V) salts for the treatment and/or prevention of Diabetes mellitus” (priority 2005, published 2007)
